US12509467B2 (Hoffmann-La Roche Inc., priority 2020, dated 2025)
Like-named read-outs stand apart in the source and are kept apart here. One block for each molecule: values may come before it.

Biological target: T1, human cGAS (residues 161-522) (Homo sapiens, UniProt Q8N884)
T1 construct: Recombinantly expressed purified human cGAS (residues 161-522) was used at 25 nM; made in house
Test: cGAS Activity Assay—Malachite Green
Assay type: biochemical
In short: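 Coupled malachite-green phosphate detection was used: enzyme and compound in 20 mM TRIS pH 7.5, 5 mM MgCl2, 0.01% BSA with 80 μM ATP, 80 μM GTP and 100 nM ISD DNA, 4 h at RT in the dark.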

[1] = cGAS inhibition, 25 nM cGAS, 80 μM ATP, 80 μM GTP, 100 nM ISD, 4 hour at RT, Malachite Green phosphate detection, read-out: IC50 cGAS

T1 sequence (Q8N884 161-522): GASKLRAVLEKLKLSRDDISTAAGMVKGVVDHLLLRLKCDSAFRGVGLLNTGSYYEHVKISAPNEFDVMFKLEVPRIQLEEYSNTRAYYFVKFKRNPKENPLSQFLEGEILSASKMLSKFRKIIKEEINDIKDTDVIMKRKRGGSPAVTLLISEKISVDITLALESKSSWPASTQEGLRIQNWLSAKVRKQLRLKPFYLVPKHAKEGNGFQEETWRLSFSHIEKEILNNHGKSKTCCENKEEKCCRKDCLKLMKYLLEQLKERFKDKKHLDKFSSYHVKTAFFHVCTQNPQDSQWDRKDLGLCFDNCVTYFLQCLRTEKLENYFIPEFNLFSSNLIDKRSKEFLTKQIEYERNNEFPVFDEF

IC50 [1]: 6.67 µM
SMILES: CCCc1cc(=O)n2nc(NCc3cc(N4CCN(C)CC4)ncc3Cl)nc2[nH]1 [Example 95, 2-[[5-chloro-2-(4-methyl-piperazin-1-yl)-4-pyridyl]-methylamino]-5-propyl-4H-[1,2,4]triazolo[1,5-a]pyrim-idin-7-one]

IC50 [1]: 0.807 µM
SMILES: CCCc1cc(=O)n2nc(NCc3cc(NC(=O)c4ccon4)ncc3Cl)nc2[nH]1 [Example 90, N-[5-Chloro-4-[[(7-oxo-5-propyl-4H-[1,2,4]triazolo[1,5-a]pyrimidin-2-yl)amino]methyl]-2-pyridyl]isoxazole-3-carboxamide]

IC50: 0.533 µM
SMILES: CCCc1cc(=O)n2nc(NCc3cc(-c4ccn(C)n4)ccc3Cl)nc2[nH]1 [Example 57, 2-[[2-chloro-5-(1-methylpyrazol-3-yl)phenyl]methylamino]-5-propyl-4H-[1,2,4]triazolo[1,5-a]pyrimidin-7-one]

IC50 [1]: 0.326 µM
SMILES: CCCc1cc(=O)n2nc(NCc3cc(-c4ncccn4)ccc3Cl)nc2[nH]1 [Example 43, 2-[(2-chloro-5-pyrimidin-2-yl-phenyl)methylamino]-5-propyl-4H-[1,2,4]triazolo[1,5-a]-pyrimidin-7-one]

IC50 [1]: 0.672 µM
SMILES: CCCc1cc(=O)n2nc(NCc3ccc(-c4ccccc4)cc3)nc2[nH]1 [Example 67, 2-[(4-phenylphenyl)methyl-amino]-5-propyl-4H-[1,2,4]-triazolo[1,5-a]pyrimidin-7-one]

IC50: 3.28 µM
SMILES: O=c1cc(CCCC(F)F)[nH]c2nc(NCc3ccc(Cl)cc3Cl)nn12 [Example 52, 2-[(2,4-dichlorophenyl)methyl-amino]-5-(4,4-difluorobutyl)-4H-[1,2,4]triazolo[1,5-a]-pyrimidin-7-one]

IC50 [1]: 1.69 µM
SMILES: CCCc1cc(=O)n2nc(NCc3cc(-c4ccn(C)n4)ccc3C(F)(F)F)nc2[nH]1 [Example 81, 2-[[5-(1-Methylpyrazol-3-yl)-2-(trifluoromethyl)phenyl]methylamino]-5-propyl-4H-[1,2,4]-triazolo[1,5-a]pyrimidin-7-one]

IC50 [1]: 0.078 µM
SMILES: O=c1cc(Cc2ccccc2)[nH]c2nc(NCc3cc(-c4ccncc4)ccc3Cl)nn12 [Example 31, 5-benzyl-2-[[2-chloro-5-(4-pyridyl)phenyl]methylamino]-4H-[1,2,4]triazolo[1,5-a]-pyrimidin-7-one]

IC50 [1]: 6.72 µM
SMILES: CCCc1cc(=O)n2nc(NC(C)c3ccc(Cl)cc3Cl)nc2[nH]1 (stereo not drawn) [Example 76, 2-[1-(2,4-dichlorophenyl)ethyl-amino]-5-propyl-4H-[1,2,4]-triazolo[1,5-a]pyrimidin-7-one]

IC50 [1]: 0.435 µM
SMILES: CCCCc1cc(=O)n2nc(NCc3nc(N4CCOCC4)ncc3Cl)nc2[nH]1 [Example 98, 5-Butyl-2-[(5-chloro-2-morpholino-pyrimidin-4-yl)methylamino]-4H-[1,2,4]triazolo[1,5-a]pyrimidin-7-one]

The next lines start with the molecule.

SMILES: CC(C)Cc1cc(=O)n2nc(NCc3ccc(Cl)cc3Cl)nc2[nH]1 [Example 64, 2-[(2,4-dichlorophenyl)methyl-amino]-5-isobutyl-4H-[1,2,4]-triazolo[1,5-a]pyrimidin-7-one]
IC50: 3.33 µM

SMILES: CCCc1cc(=O)n2nc(NCc3ccc(-c4ccccc4)cc3F)nc2[nH]1 [Example 1, 2-[(2-Fluoro-4-phenyl-phenyl)methylamino]-5-propyl-4H-[1,2,4]triazolo[1,5-a]pyrimidin-7-one]
IC50 [1]: 0.744 µM

SMILES: Cn1ccc(-c2ccc(Cl)c(CNc3nc4[nH]c(Cc5ccccc5)cc(=O)n4n3)c2)n1 [Example 27]
IC50 [1]: 0.178 µM

SMILES: CCCc1cc(=O)n2nc(NCc3ccc(OCc4ccccc4)cc3)nc2[nH]1 [Example 17, 2-[(4-benzyloxyphenyl)methyl-amino]-5-propyl-4H-[1,2,4]-triazolo[1,5-a]pyrimidin-7-one]
IC50: 4.08 µM

SMILES: CCCc1cc(=O)n2nc(NCc3cc(-c4ccncc4)ccc3Cl)nc2[nH]1 [Example 25, 2-[[2-chloro-5-(4-pyridyl)phen-yl]methylamino]-5-propyl-4H-[1,2,4]triazolo[1,5-a]pyrimidin-7-one]
IC50: 0.287 µM

SMILES: CCCc1cc(=O)n2nc(NCc3ccc(-n4ccnc4)cc3)nc2[nH]1 [Example 9, 2-[(4-imidazol-1-ylphenyl)meth-ylamino]-5-propyl-4H-[1,2,4]-triazolo[1,5-a]pyrimidin-7-one]
IC50 [1]: 4.01 µM

SMILES: CCCc1cc(=O)n2nc(NCc3cc(-c4ccccc4)ccc3Cl)nc2[nH]1 [Example 23, 2-[(2-chloro-5-phenylphenyl)-methylamino]-5-propyl-4H-[1,2,4]triazolo[1,5-a]pyrimidin-7-one]
IC50 [1]: 2.44 µM

SMILES: CCCc1cc(=O)n2nc(NCc3cc(-c4ccn(C)n4)ccc3OC)nc2[nH]1 [Example 28, 2-[[2-methoxy-5-(1-methyl-pyrazol-3-yl)phenyl]methyl-amino]-5-propyl-4H-[1,2,4]-triazolo[1,5-a]pyrimidin-7-one]
IC50 [1]: 1.91 µM
